Results taken from US20230091047A1 (priority 2019, published 2023).

Experiments:
in vitro = format: cell-based; conditions: human, HepG2 or HepG2.117 cells, ATPlite, 3-days incubation (not marked with *), mean value
Summary of the method: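 Luminescent ATP quantitation served as the viability endpoint following a 3- or 4-day incubation with test compounds.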

[1] = test system: HBV (HepG2.117 cell line, inducibly HBV producing); assay: Anti-HBV activity: intracellular HBV DNA by real-time PCR in HepG2.117 cells after 3 days of treatment; format: cell-based, hepatitis B virus; conditions: Hepatitis B virus, HepG2.117, 72 h, HepG2.117 cells, intracellular HBV DNA by real-time PCR, 3 days of treatment, mean value; read-out: EC50 (μM, mean value)
Summary of the method: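 HepG2.117 cells (Tet-off, inducible HBV production) were induced to replicate HBV by doxycycline absence, then treated with serially diluted compound for 3 days. Activity was quantified as intracellular HBV DNA by real-time PCR using an HBV-specific primer set and probe.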

| Compound | CC50 at 3 days (in vitro) [µM] | EC50 [1] [µM] |
| --- | --- | --- |
| CNC(=O)c1ccc(-n2c(NC(C)C)nc3c(c2=O)C[C@@H](C)N(C(=O)c2cc(Br)c4nccn4c2)C3)cc1 [Compound C495] | > 50 | > 25 |
| CNC(=O)c1ccc(-n2c(NC(C)C)nc3c(c2=O)C[C@@H](C)N(C(=O)c2cc(C#N)c[nH]2)C3)cc1 [Compound C496] | > 50 | > 25 |
| CNC(=O)c1ccc(-n2c(NC(C)C)nc3c(c2=O)C[C@@H](C)N(C(=O)c2cn4ccccc4n2)C3)cc1 [Compound C497] | > 50 | 11.8 |
| CNC(=O)c1ccc(-n2c(NC(C)C)nc3c(c2=O)C[C@@H](C)N(C(=O)c2cc(F)c(Cl)cc2F)C3)cc1 [Compound C498] | > 50 | 2.92 |
| CNC(=O)c1ccc(-n2c(NC(C)C)nc3c(c2=O)C[C@@H](C)N(C(=O)c2ccc(F)c(C)c2)C3)cc1 [Compound C499] | > 50 | 1.53 |
| CNC(=O)c1ccc(-n2c(NC(C)C)nc3c(c2=O)C[C@@H](C)N(C(=O)c2ccc(C(F)F)c(F)c2)C3)cc1 [Compound C500] | > 50 | 0.59 |
| CNC(=O)c1ccc(-n2c(NC(C)C)nc3c(c2=O)C[C@@H](C)N(C(=O)c2cc(C)c(F)c(C)c2)C3)cc1 [Compound C501] | > 50 | 0.36 |
| CNC(=O)c1ccc(-n2c(NC(C)C)nc3c(c2=O)C[C@@H](C)N(C(=O)c2cc(F)cc(F)c2)C3)cc1 [Compound C502] | > 50 | 8.95 |
| CNC(=O)c1ccc(-n2c(NC(C)C)nc3c(c2=O)C[C@@H](C)N(C(=O)c2cc4ccncc4s2)C3)cc1 [Compound C503] | > 50 | 6.32 |
| CNC(=O)c1ccc(-n2c(NC(C)C)nc3c(c2=O)C[C@@H](C)N(C(=O)c2cccc(Cl)c2OC)C3)cc1 [Compound C504] | > 50 | 1.01 |
| CNC(=O)c1ccc(-n2c(NC(C)C)nc3c(c2=O)C[C@@H](C)N(C(=O)c2cc4c(F)cccc4[nH]2)C3)cc1 [Compound C505] | 25.6 | 0.02 |
| CNC(=O)c1ccc(-n2c(NC(C)C)nc3c(c2=O)C[C@@H](C)N(C(=O)c2cc(C)c(C#N)c(C)c2)C3)cc1 [Compound C506] | > 50 | 0.94 |
| CNC(=O)c1ccc(-n2c(NC(C)C)nc3c(c2=O)C[C@@H](C)N(C(=O)c2ccc(C)cc2)C3)cc1 [Compound C507] | > 50 | 2.89 |
| CNC(=O)c1ccc(-n2c(NC(C)C)nc3c(c2=O)C[C@@H](C)N(C(=O)c2ccc(C#N)c(Cl)c2)C3)cc1 [Compound C508] | > 50 | 0.88 |
| CNC(=O)c1ccc(-n2c(NC(C)C)nc3c(c2=O)C[C@@H](C)N(C(=O)c2ccc4[nH]c(=O)n(C)c4c2)C3)cc1 [Compound C509] | > 50 | > 25 |
| CNC(=O)c1ccc(-n2c(NC(C)C)nc3c(c2=O)C[C@@H](C)N(C(=O)c2ccc4c(c2)[nH]c(=O)n4C)C3)cc1 [Compound C510] | > 50 | 9.42 |
| CNC(=O)c1ccc(-n2c(NC(C)C)nc3c(c2=O)C[C@@H](C)N(C(=O)c2ccc(Br)cc2F)C3)cc1 [Compound C511] | > 50 | 2.41 |
| CNC(=O)c1ccc(-n2c(NC(C)C)nc3c(c2=O)C[C@@H](C)N(C(=O)c2ccc(Br)c(F)c2OC)C3)cc1 [Compound C512] | > 50 | 1.11 |
| CNC(=O)c1ccc(-n2c(NC(C)C)nc3c(c2=O)C[C@@H](C)N(C(=O)c2ccc(Br)cc2OC)C3)cc1 [Compound C513] | > 50 | 22.1 |
| CNC(=O)c1ccc(-n2c(NC(C)C)nc3c(c2=O)C[C@@H](C)N(C(=O)c2ccc(C)c(Cl)c2)C3)cc1 [Compound C514] | > 50 | 0.61 |
| CNC(=O)c1ccc(-n2c(NC(C)C)nc3c(c2=O)C[C@@H](C)N(C(=O)c2ccc(C)c(F)c2)C3)cc1 [Compound C515] | > 50 | 1.14 |
| CNC(=O)c1ccc(-n2c(NC(C)C)nc3c(c2=O)C[C@@H](C)N(C(=O)c2cc4ccc(OC)cc4n2C)C3)cc1 [Compound C516] | > 50 | 2.68 |
| CNC(=O)c1ccc(-n2c(N[C@H](C)c3cnnn3C)nc3c(c2=O)C[C@@H](C)N(C(=O)c2ccc(Cl)c(Cl)c2)C3)cc1 [Compound C517] | > 50 | > 25 |
| CNC(=O)c1ccc(-n2c(N3CCOCC(C)C3)nc3c(c2=O)C[C@@H](C)N(C(=O)c2ccc(Cl)c(Cl)c2)C3)cc1 (some centres unmarked) [Compound C518] | > 50 | 0.47 |
| CNC(=O)c1ccc(-n2c(NC(C)C)nc3c(c2=O)C[C@@H](C)N(C(=O)c2cc(F)c(Br)c(F)c2)C3)cc1 [Compound C519] | > 50 | 0.02 |

| Compound | CC50 at 3 days (in vitro) [µM] | EC50 [1] [µM] |
| --- | --- | --- |
| CNC(=O)c1ccc(-n2c(NC(C)C)nc3c(c2=O)C[C@@H](C)N(C(=O)c2ccc(Cl)cc2F)C3)cc1 [Compound C520] | > 50 | 3.74 |
| CNC(=O)c1ccc(-n2c(NC(C)C)nc3c(c2=O)C[C@@H](C)N(C(=O)c2cc(Cl)c(Br)cc2OC)C3)cc1 [Compound C521] | > 50 | 7.64 |
| CNC(=O)c1ccc(-n2c(NC(C)C)nc3c(c2=O)C[C@@H](C)N(C(=O)c2ccc(Br)cc2OC(F)F)C3)cc1 [Compound C522] | > 50 | 0.77 |
| CNC(=O)c1ccc(-n2c(NC(C)C)nc3c(c2=O)C[C@@H](C)N(C(=O)c2cc(Br)c(Cl)cc2OC)C3)cc1 [Compound C523] | > 50 | 18 |
| CNC(=O)c1ccc(-n2c(NC(C)C)nc3c(c2=O)C[C@@H](C)N(C(=O)c2cc4ccc(OC)cc4s2)C3)cc1 [Compound C524] | > 50 | 1.36 |
| CNC(=O)c1ccc(-n2c(NC(C)C)nc3c(c2=O)C[C@@H](C)N(C(=O)c2ccc(OC(F)(F)F)c(Cl)c2)C3)cc1 [Compound C525] | > 50 | 0.15 |
| CNC(=O)c1cc(-n2c(NC(C)c3ccc(OC(F)(F)F)cc3)nc3c(c2=O)C[C@@H](C)N(C(=O)c2ccc(Cl)c(Cl)c2)C3)[nH]n1 (some centres unmarked) [Compound C531] | 26.3 | 0.21 |
| C[C@H](Nc1nc2c(c(=O)n1-c1ccc(-n3cccn3)cc1)C[C@@H](C)N(C(=O)c1ccc(Cl)c(Cl)c1)C2)c1ccc(C(F)(F)F)cc1 [Compound C532] | > 50 | 0.16 |
| CNC(=O)c1ccc(-n2c(N[C@@H](C)c3ccc(C(F)(F)F)cc3)nc3c(c2=O)C[C@@H](C)N(C(=O)c2ccc(Cl)c(Cl)c2)C3)cn1 [Compound C533] | > 50 | 0.11 |
| CNC(=O)c1cc(-n2c(N[C@@H](C)c3ccc(C(F)(F)F)cc3)nc3c(c2=O)C[C@@H](C)N(C(=O)c2ccc(Cl)c(Cl)c2)C3)n(C)n1 [Compound C534] | > 50 | 0.14 |
| CNC(=O)c1ccc(-n2c(N[C@@H](C)c3ccc(OC(F)(F)F)cc3)nc3c(c2=O)C[C@@H](C)N(C(=O)c2ccc(Cl)c(Cl)c2)C3)cn1 [Compound C537] | > 50 | 0.08 |
| CNC(=O)c1ccc(-n2c(NCc3nnn(C)c3C(F)(F)F)nc3c(c2=O)C[C@@H](C)N(C(=O)c2ccc(Cl)c(Cl)c2)C3)cc1 [Compound C539] | > 50 | 5.47 |
| CNC(=O)c1ccc(-n2c(NC(C)Cn3cncn3)nc3c(c2=O)C[C@@H](C)N(C(=O)c2ccc(Cl)c(Cl)c2)C3)cc1 (some centres unmarked) [Compound C540] | > 50 | 15.8 |
| CNC(=O)c1ccc(-n2c(NCc3n[nH]c(C)n3)nc3c(c2=O)C[C@@H](C)N(C(=O)c2ccc(Cl)c(Cl)c2)C3)cc1 [Compound C541] | > 50 | > 25 |
| CNC(=O)c1ccc(-n2c(NCc3nncn3-c3ccccc3)nc3c(c2=O)C[C@@H](C)N(C(=O)c2ccc(Cl)c(Cl)c2)C3)cc1 [Compound C542] | > 50 | 12.9 |
| CNC(=O)c1ccc(-n2c(NCc3cccc(-n4cncn4)c3)nc3c(c2=O)C[C@@H](C)N(C(=O)c2ccc(Cl)c(Cl)c2)C3)cc1 [Compound C543] | > 50 | 7.02 |
| CNC(=O)c1ccc(-n2c(N(C)Cc3ccc4cnccc4c3)nc3c(c2=O)C[C@@H](C)N(C(=O)c2ccc(Cl)c(Cl)c2)C3)cc1 [Compound C544] | 26.7 | 0.6 |
| CNC(=O)c1ccc(-n2c(NCc3nnc(C(C)C)[nH]3)nc3c(c2=O)C[C@@H](C)N(C(=O)c2ccc(Cl)c(Cl)c2)C3)cc1 [Compound C545] | > 50 | > 25 |
| CNC(=O)c1ccc(-n2c(NCC3CC3C)nc3c(c2=O)C[C@@H](C)N(C(=O)c2ccc(Cl)c(Cl)c2)C3)cc1 (some centres unmarked) [Compound C547] | 47.2 | 0.97 |
| CNC(=O)c1ccc(-n2c(NC(C)Cc3c[nH]c4ccc(F)cc34)nc3c(c2=O)C[C@@H](C)N(C(=O)c2ccc(Cl)c(Cl)c2)C3)cc1 (some centres unmarked) [Compound C548] | 10.3 | 0.58 |
| CNC(=O)c1ccc(-n2c(NC3COC(C4CC4)C3)nc3c(c2=O)C[C@@H](C)N(C(=O)c2ccc(Cl)c(Cl)c2)C3)cc1 (some centres unmarked) [Compound C549] | > 50 | 1.22 |
| CNC(=O)c1ccc(-n2c(NC(C)c3cccs3)nc3c(c2=O)C[C@@H](C)N(C(=O)c2ccc(Cl)c(Cl)c2)C3)cc1 (some centres unmarked) [Compound C550] | 30.2 | 0.54 |
| CNC(=O)c1ccc(-n2c(NCC(C)c3nncn3C)nc3c(c2=O)C[C@@H](C)N(C(=O)c2ccc(Cl)c(Cl)c2)C3)cc1 (some centres unmarked) [Compound C551] | > 50 | > 25 |
| CNC(=O)c1ccc(-n2c(NCc3nnn(C)c3C(F)F)nc3c(c2=O)C[C@@H](C)N(C(=O)c2ccc(Cl)c(Cl)c2)C3)cc1 [Compound C552] | > 50 | > 25 |
